Values after ≈ are worked out from the molar mass of the structure shown. Like-named read-outs stand apart in the source and are kept apart here.
How the values were obtained:
[1] = test system: P. aeruginosa 1624 ΔmexCD-oprJ, ΔmexEF-oprN; test: MIC, efflux pump mutant; format: cell-based, Pseudomonas aeruginosa
Procedure: (§1) Minimal inhibitory concentrations (MICs) were performed using a broth microdilution technique according to the Clinical and Laboratory Standards Institute (CLSI) guidelines. MICs were determined in MHBCA and in ID-MHBCA. To check the impact of β-lactamases, MICs in the presence of a β-lactamase inhibitor were also determined. The inhibitor was homogenized at 2X the final concentration and added to the bacterial inoculum just before distributing cells into the wells containing the drug dilutions. The final concentration of each inhibitor was 4 μg/mL for clavulanic acid (tested against K. pneumoniae) and 200 μg/mL for 3-aminophenylboronic acid (tested against P. aeruginosa and A. baumannii).

[2] = test system: P. aeruginosa 1625 ΔmexAB-oprM, ΔmexEF-oprN; test: MIC, efflux pump mutant; format: cell-based, Pseudomonas aeruginosa
Procedure: as §1

[3] = target: T1, purified PBP3 of P. aeruginosa (PaPBP3) (Pseudomonas aeruginosa, UniProt G3XD46); test: biochemical; format: binding
T1 construct: (residues 53 to 579) from P. aeruginosa ATCC 27853 (PaPBP3); His6 (C); made in house; host or cells: E. coli BL21 DE3
Procedure: The PBP binding assay was done as described previously[36],[56],[57]. For each antibiotic concentration tested, a quantity of 25 to 40 μg of membrane preparation was used as the source of PBPs, depending on the species. For the purified PaPBP3, 150 ng was used in the assay. First, increasing concentrations of the test antibiotic was added to the membrane or purified PaPBP3 preparations and incubated for 10 min at 30 °C. The reporter molecule Bocillin FL was then added at 12.5 μM for the membrane PBPs preparations and at 500 nM for the pure PaPBP3 samples for an additional 20 min at 30 °C. All reactions were stopped with the addition of the Laemmli-loading buffer (Bio-Rad) containing fresh β-mercaptoethanol (Sigma). All reactions were then heated at 100°C for 3 min before migration on SDS-polyacrylamide discontinuous gel system (7.5% stacking and 10% separating). Control samples without Bocillin FL were also included to highlight autofluorescent proteins that are not PBPs.
To be able to visualize labeled PBPs after electrophoresis, gels were rinsed in water and fixed in a solution of 50% methanol and 7% acetic acid for 30 min. The fluorescent images of gels were obtained with the Typhoon FLA 9500 instrument (GE-Healthcare Bio-Sciences Inc., Baie-d’Urfé, QC, CA) using a 473 nm excitation wavelength. To obtain quantifiable data, the software Quantity One 1D analysis was used (version 4.6.6; Bio-Rad Laboratories, Richmond, CA). The volume (intensity × constant area) of each PBP was measured. […] All IC50 data were obtained from at least two independent PBP binding assays using two different sets of compound concentrations using a linear regression.

[4] = test system: E. coli MC4100; test: MIC; format: cell-based, Escherichia coli; conditions: for MIC in combination with PAβN: + 25 µg/mL PAβN
Procedure: All bacterial strains (see description and sources Table S1) were stored at −80 °C, and grown on tryptone soya agar (TSA) at 35 °C. The iron-deprived (ID)-MHBCA (cation-adjusted Muller-Hinton Broth, Becton Dickinson, Mississauga, ON, Canada) medium was prepared as reported by refs. [21],[50]. Briefly, MHBCA was treated with 10% Chelex® 50-100 mesh (Sigma) and stirred for 6 h at room temperature. The resin was removed by filtration. Divalent Ca^2+ (CaCl2), Mg^2+ (MgCl2), and Zn^2+(ZnSO4), were then added in the iron-depleted medium at 22, 12, and 1 μg/ml respectively. Finally, the pH was adjusted to 7.3, and the medium was sterilized with a 0.2-μm filter. Regular MHBCA (i.e., not treated with Chelex®) was used to compare the inhibitory activity of conjugates in iron-sufficient conditions.
as §1

[5] = target: OXA-98 (Acinetobacter baumannii, UniProt D0C7W4); test: biochemical; design: species or system A. baumannii ATCC 19606
Procedure: Enzyme concentrations were 20 nM for AmpC and SHV-1, and 50 nM for OXA-98. Quartz cuvette (FireflySci Inc., Northport, NY) with 1 cm length path and 2 mm inside width was used with an Ultrospec 2100 Pro (Biochrom, Harvard Bioscience Inc., USA) to acquire the kinetic measures. […] The following extinction coefficients (Δε) and wavelengths (λ) were used:
The steady-state parameters (Km and Kcat) were determined by plotting the initial velocity against substrate concentrations (Michaelis–Menten curve). The Kcat was measured using the Vmax (μM/sec) divided by the total enzyme concentration and the catalytic efficiency was further calculated (Kcat/Km). SHV-1 parameters were determined with three Michaelis–Menten curves of at least seven substrate concentrations, while OXA-98 and AmpC were duplicates of curves of at least seven substrate concentrations. […] Initial velocities were measured at room temperature (25 °C). The Vmax and Km were calculated using least squares fit regression in GraphPad version 10.2.2. Ki was measured using a derivative of IC50 with an adaptation of the Cheng–Prusoff equation[55]. […] The corrected Ki was calculated using this formula: Kicorrected=Ki(observed)/1+S/KmNCF

[6] = Escherichia coli, MC4100, MC4100, ID-MHBCA (−), read-out: MIC
[7] = 150 ng PaPBP3, 500 nM Bocillin FL, n = 3, read-out: IC50 PaPBP3 purified
[8] = Escherichia coli, MC4100, MC4100, MHBCA (+), without PAβN, read-out: MIC
[9] = Escherichia coli, MC4100, MHBCA (+), without PAβN, read-out: MIC
[10] = MC4100, efflux pump mutant table S5, read-out: MIC

T1 sequence (G3XD46 53-579): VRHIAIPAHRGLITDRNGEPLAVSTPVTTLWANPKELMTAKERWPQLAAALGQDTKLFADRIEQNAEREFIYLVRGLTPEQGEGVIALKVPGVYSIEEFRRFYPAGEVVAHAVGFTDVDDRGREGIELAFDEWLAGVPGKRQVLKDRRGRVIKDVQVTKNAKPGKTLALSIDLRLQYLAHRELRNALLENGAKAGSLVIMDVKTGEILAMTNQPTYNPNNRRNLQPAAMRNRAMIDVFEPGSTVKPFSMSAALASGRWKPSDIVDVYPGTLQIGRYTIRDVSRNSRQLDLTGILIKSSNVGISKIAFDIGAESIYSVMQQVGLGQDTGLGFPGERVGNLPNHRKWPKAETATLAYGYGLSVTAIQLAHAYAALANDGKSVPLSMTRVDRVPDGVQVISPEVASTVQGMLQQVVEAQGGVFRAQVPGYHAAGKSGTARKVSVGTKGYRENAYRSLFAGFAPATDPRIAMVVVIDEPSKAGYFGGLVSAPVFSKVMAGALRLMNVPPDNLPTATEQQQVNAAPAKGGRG
Chain of OXA-98 (D0C7W4 entry or part of it): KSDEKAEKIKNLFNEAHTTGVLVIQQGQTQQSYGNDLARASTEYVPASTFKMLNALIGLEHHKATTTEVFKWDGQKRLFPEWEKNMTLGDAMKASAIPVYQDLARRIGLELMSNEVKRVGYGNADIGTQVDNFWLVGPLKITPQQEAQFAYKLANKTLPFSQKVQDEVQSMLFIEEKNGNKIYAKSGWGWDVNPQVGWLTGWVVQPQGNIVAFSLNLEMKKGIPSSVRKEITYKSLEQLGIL

Compound	MIC ([1]; Pseudomonas aeruginosa) [µM]	MIC ([2]; Pseudomonas aeruginosa) [µM]	IC50 [3] [nM]	MIC ([4]; Escherichia coli, MC4100) [µM]	MIC [4, 6] [µM]	MIC ratio unconjugated β-lactam/conjugate ([4]; MC4100, ID-MHBCA)	MIC ratio unconjugated β-lactam/conjugate ([4]; MC4100, MHBCA)	MIC in combination with PAβN ([4]; MC4100, MHBCA) [µM]	Ki [5] [nM]	IC50 [3, 7] [nM]	IC50 ratio βL/SID-βL, PaPBP3 purified [3]	MIC [4, 8] [µM]	MIC [4, 9] [µM]	MIC [4, 10] [µM]	hydrolysis by OXA-98 [5]	MIC ([4]; MC4100, ID-MHBCA (−), read-out: MIC) [µM]	MIC ([4]; MC4100, MHBCA (+), without PAβN, read-out: MIC) [µM]	MIC ([1]; P. aeruginosa 1624) [µM]	MIC ([2]; P. aeruginosa 1625) [µM]
CC1(C)S[C@@H]2[C@H](NC(=O)[C@H](N)c3ccccc3)C(=O)N2[C@H]1C(=O)O [AMP, ampicillin, reference compound]	> 200	> 200	74 ± 29																
CC1(C)SC2C(NC(=O)C(NC(=O)CN(CCCCNC(=O)c3cccc(O)c3O)C(=O)c3cccc(O)c3O)c3ccccc3)C(=O)N2C1C(=O)O (stereo not drawn) [BAMP, bis-catechol (azotochelin)-ampicillin]	0.4 (≈ 0.3 µg/mL)	0.2 (≈ 0.15 µg/mL)		0.05 (≈ 0.0375 µg/mL)	0.024 (≈ 0.018 µg/mL)	512	256	0.2	499000 ± 4000	76 ± 31	0.97								
O=C(CN(CCCCNC(=O)c1cccc(O)c1O)C(=O)c1cccc(O)c1O)NC(C(=O)NC1C(=O)N2C(C(=O)O)=C(Cl)CCC12)c1ccccc1 (stereo not drawn) [BLOR, bis-catechol (azotochelin)-loracarbef]	6.3 (≈ 4.73 µg/mL)	6.3 (≈ 4.73 µg/mL)			0.006 (≈ 0.0045 µg/mL)	512	256	0.2		380 ± 70	23	0.012 (≈ 0.009 µg/mL)	0.024 (≈ 0.018 µg/mL)	0.024 (≈ 0.018 µg/mL)	No hydrolysis				
N[C@@H](C(=O)N[C@@H]1C(=O)N2C(C(=O)O)=C(Cl)CS[C@H]12)c1ccccc1 [CEF, cefaclor, reference compound]	> 200	> 200			3.1 (≈ 1.14 µg/mL)			13				6.3 (≈ 2.32 µg/mL)			No hydrolysis				
N[C@@H](C(=O)N[C@@H]1C(=O)N2C(C(=O)O)=C(Cl)CC[C@H]12)c1ccccc1 [LOR, loracarbef, reference compound]								6.3		8600 ± 3600				3.1 (≈ 1.08 µg/mL)	No hydrolysis	3.1 (≈ 1.08 µg/mL)	3.1 (≈ 1.08 µg/mL)	> 200	> 200
O=C(CCC(=O)N(CCCCNC(=O)c1cccc(O)c1O)CCCNC(=O)c1cccc(O)c1O)NCCCCCN(O)C(=O)CCCC(=O)NC(C(=O)NC1C(=O)N2C(C(=O)O)=C(Cl)CSC12)c1ccccc1 (stereo not drawn) [MCEF, mixed ligand bis-catechol-mono-hydroxamate-cefaclor]	> 100	> 100			> 200	< 0.016		> 200				6.3 to 25 (≈ 6.81 to 27 µg/mL)	6.3 (≈ 6.81 µg/mL)	6.3 (≈ 6.81 µg/mL)	No hydrolysis				

— article PMC12592502, “Unraveling the mechanisms behind the enhanced efficacy of β-lactam-based sideromycins” (Communications Biology, 2025)
